Source: patent US20190008850A1, “METHOD OF TREATING SCHIZOPHRENIA” (priority 2015, published 2019)
Counter-ions that a name gives are not always drawn.

Test system: individuals with schizophrenia
Assay: Therapeutic administration of dextromethorphan in schizophrenia (summary statement)
Format: in vivo, human

SMILES: COc1ccc2c(c1)[C@]13CCCC[C@@H]1[C@H](C2)N(C)CC3 [dextromethorphan, morphinan, 3-methoxy-17-methyl-, (9a, 13a, 14a)-hydrobromide monohydrate]
- progression of schizophrenia (administered at first break): mitigated the progression of schizophrenia, and in some cases, reversed the disorder
- positive symptoms, in particular expressions of hostility (in vivo): appears to also reduce some positive symptoms
- frequency and intensity of negative symptoms (individuals with established schizophrenia diagnoses): significantly reduced
- negative symptoms of schizophrenia (therapeutic administration): substantially reduces
